The record followed here is patent US7189691B2, “Methods and compositions for treating leukemia” (The Administrators of the Tulane Educational Fund, priority 2004, dated 2007).

Entries after “also recorded” stand apart in the source; their conditions may differ.

One experiment deals with T1, mBCoR binding to AF9 (Homo sapiens, UniProt P42568).
T1 construct: made in house; host or cells: GST-mBCoR from E. coli; AF9 by coupled in vitro transcription/translation (Promega)
T1 sequence (P42568 211-568): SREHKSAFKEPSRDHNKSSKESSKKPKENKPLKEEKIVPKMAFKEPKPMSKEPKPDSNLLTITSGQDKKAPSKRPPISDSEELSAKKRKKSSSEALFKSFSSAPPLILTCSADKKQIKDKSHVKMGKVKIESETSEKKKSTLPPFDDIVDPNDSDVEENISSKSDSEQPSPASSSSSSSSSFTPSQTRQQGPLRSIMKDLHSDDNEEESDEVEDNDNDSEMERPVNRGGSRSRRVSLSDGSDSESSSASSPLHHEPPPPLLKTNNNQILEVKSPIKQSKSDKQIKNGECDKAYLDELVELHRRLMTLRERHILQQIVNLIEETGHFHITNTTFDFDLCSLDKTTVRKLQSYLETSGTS
Put plainly: GST pull-down assay, GST-mBCoR(925-1759) and biotinylated AF9. On the set-up: species or system murine. The settings on record: 25 μg/ml. As for the experimental part:
(§1) To determine if the synthetic peptide could disrupt the AF4-AF9 interaction in vitro, and to determine if the peptide disrupted other binding events with AF9, the following assay was performed. In additional to AF4, the carboxy-terminus of AF9 binds at least two other proteins, the Polycomb protein MPc3 and mBCoR, the mouse homolog of the human BCL-6 corepressor protein (Srinivasan 2003 and Hemenway 2001, both cited above). Using a yeast three hybrid assay similar to that described in Example 1, it was previously shown that mBCoR and FMR2 (an AF4 homolog) can simultaneously bind AF9. […] The sequences of human AF4 and AF9 and murine MPc3 and BCoR can be found in the NCBI database under Accession Nos. P51825, P42568, Q9QXV1, and AAN85318, respectively, incorporated by reference herein.
(§2) Recombinant proteins consisting of glutathione-S-transferase (GST) fused to either (a) amino acids 749–775 of human AF4 SEQ ID NO: 107, (b) amino acids 202–362 of MPc3 SEQ ID NO: 108 or (c) amino acids 925–1759 of mBCoR SEQ ID NO: 109 were isolated from E. coli. These fusion proteins were immobilized on 50 μl glutathione agarose matrix. […]
(§3) After extensive washing with TBST, proteins were resolved by SDS-PAGE and transferred to nitrocellulose. […] Alkaline phosphatase activity was measured by determining the optical density of the samples at 405 nm with a plate spectrophotometer. […]

The test system of another experiment is NIH 373 cell line. Put plainly: Proliferation test. In kind it is cell-based. The settings on record: data not shown.
For another experiment, the system named is THP-1 leukemia cell line. Put plainly: MTT viability assay. The settings on record: 72 h, varying concentrations. It is filed as cell-based. As for the experimental part: (§4) All cell lines were maintained in RPMI 1640+10% FCS. 100 μl aliquots of cell suspension (5×10^5 cells/ml) were cultured in flat-bottomed 96 well plates in the presence of different concentrations of peptides. After 72 h incubation at 37° C. in humidified air containing 5% CO2, viable cell number was determined by MTT assay as follows: 10 μl of 3-[4,5-dimethylthiazol-2-yl]-2,5-diphenyl tetrazolium bromide (MTT) (5 mg/ml concentration) (Sigma) was added to each well and incubated further for 6 h. Formazan crystals that are formed during incubation were dissolved in 100 μl of acidified isopropanol. The optical density at 550 nm (which is linearly related to the number of viable cells) was measured using a plate spectrophotometer. Growth characteristics of the leukemia cell lines were also determined for cells by Trypan Blue exclusion.

Experiment [1] has as its system MV4-11 leukemia cell line. As to the kind of experiment: MTT viability assay. In kind it is cell-based. The settings on record: 72 h, differing concentrations. As for the experimental part: as §4
Experiment [2] relates to Reh B-precursor leukemia cell line. As to the kind of experiment: MTT viability assay. It is filed as cell-based. The settings on record: 72 h. The method, then:
as §4

A further experiment has as its system B1 leukemia cell line. Put plainly: MTT viability assay. The settings on record: 72 h, differing concentrations. It is filed as cell-based. As for the experimental part:
as §4

The subject of experiment [3] is MOLT-4 T-cell leukemia line. Put plainly: MTT viability assay. It is filed as cell-based. The settings on record: 72 h, up to 200 μg/ml. The method, then:
as §4

Another experiment relates to Raji lymphoma cell line. As to the kind of experiment: Proliferation test. In kind it is cell-based. The settings on record: data not shown.
For a further experiment, the target named is T2, MPc3 binding to AF9 (Homo sapiens, UniProt P42568).
T2 construct: made in house; host or cells: GST-MPc3 from E. coli; AF9 by coupled in vitro transcription/translation (Promega)
T2 sequence (P42568 211-568): T1 sequence (P42568 211-568)
As to the kind of experiment: GST pull-down assay, GST-MPc3(202-362) and biotinylated AF9. Details: species or system murine. The settings on record: 25 μg/ml. The method, then: as §1, §2, §3

Experiment [4] deals with RS4;11 leukemia cell line. As to the kind of experiment: MTT viability assay and growth curve (Trypan Blue exclusion). It is filed as cell-based. The settings on record: 100 μg/ml, 72 h. The method, then: as §4
The subject of a further experiment is B1 cells. As to the kind of experiment: Annexin-V/PI binding assay (flow cytometry). In kind it is cell-based. The settings on record: treated for 24 h. As for the experimental part: To test the possibility that growth inhibition of t(4;11) leukemia cells exposed to PFWT is the result of apoptotic cell death, annexin-V labeling of the cell membrane of the leukemic cells examined in Example 5 was used to assess apoptosis as follows (Koopman, G., et al., Blood 1994 84: 1415–1420.). Annexin V binding assays were carried out using a Vibrant™ apoptosis kit (Molecular Probes). […] For annexin V-propidium iodide (PI) staining, cells were harvested, washed once with PBS and resuspended in 100 μl annexin binding buffer. 5 μl annexin V conjugated to Alexa Fluor 488 and 2 μl of 100 μg/ml PI were added to the cell suspension and incubated at room temperature for 15 minutes. The cells were then washed once in annexin binding buffer and resuspended in 400 μl annexin binding buffer. These samples were then analyzed by flow cytometry using Coulter benchtop flow cytometer. The cells were excited by a 488 nm wavelength laser beam and the emission was measured using a 530 nm filter for annexin V and a 575 nm filter for PI.

Turning to `CC[C@H](C)[C@H](NC(=O)[C@H](CCCCN)NC(=O)[C@@H](NC(=O)[C@H](Cc1c[nH]c2ccccc12)NC(=O)[C@H](CC(C)C)NC(=O)[C@H](CCCCN)NC(=O)[C@H](CCCCN)NC(=O)[C@H](Cc1c[nH]c2ccccc12)NC(=O)[C@H](CCCCN)NC(=O)[C@H](CCSC)NC(=O)[C@H](CCCNC(=N)N)NC(=O)[C@H](CCCNC(=N)N)NC(=O)[C@H](CC(N)=O)NC(=O)[C@H](CCC(N)=O)NC(=O)[C@H](Cc1ccccc1)NC(=O)[C@H](Cc1c[nH]c2ccccc12)NC(=O)[C@H](CCCCN)NC(=O)[C@@H](NC(=O)[C@H](CCC(N)=O)NC(=O)[C@@H](N)CCCNC(=N)N)[C@@H](C)CC)C(C)C)C(=O)N[C@@H](CC(=O)O)C(=O)N[C@@H](CC(C)C)C(=O)N[C@@H](CC(=O)O)C(=O)N[C@@H](CC(C)C)C(=O)N[C@@H](CC(C)C)C(=O)N[C@@H](CO)C(=O)N[C@@H](CCCNC(=N)N)C(=O)N[C@H](C(=O)N1CCC[C@H]1C(=O)O)C(C)C` [PFWT], on mBCoR binding to AF9, the “displacement of mBCoR from AF9” value is listed as “not displaced”. Further, the proliferation entry in the experiment with NIH 373 cell line and in the experiment on Raji lymphoma cell line was “not affect the proliferation” throughout. The cell viability entry with THP-1 leukemia cell line is recorded as “inhibited to a much lesser extent; also recorded: not significantly inhibited”; in experiment [1] it was “diminished; also recorded: inhibits”; in experiment [2], “inhibited”; with B1 leukemia cell line, “diminished; also recorded: inhibits”; in experiment [3], “not affected”. For the same molecule, the “displacement of MPc3 from AF9” value on MPc3 binding to AF9 is recorded as “not displaced”. Moreover, in [4], the proliferation / viability entry is given as “completely inhibits proliferation”. Besides, the “cells in early stages of apoptosis (Annexin-V binding, exclusion of PI)” value with B1 cells was 45%. Moreover, the “cells in later stages of apoptosis (positive for Annexin-V and PI)” value in the experiment on B1 cells was 35%.
